Source: patent US11078228B2, “Ectonucleotidase inhibitors and methods of use thereof” (Calithera Biosciences, Inc., priority 2018, dated 2021)

The molecules below were run against T1, recombinant CD73 (Homo sapiens (Human), UniProt P21589) (assay: Assay 2: Inhibition of the CD73 enzyme in vitro (0.05 nM CD73, 1 hour 37° C., Malachite Green)). Details: 0.05 nM CD73, 50 μM AMP, 1 hour at 37° C.
Assay type: biochemical
How it was run: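 Soluble recombinant CD73 reactions ran 1 hour at 37° C. Malachite Green was then added, and absorbance at 630 nm was read after 5 min at room temperature. Inorganic phosphate was quantified from a phosphate standard curve.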

T1 sequence (P21589 27-547): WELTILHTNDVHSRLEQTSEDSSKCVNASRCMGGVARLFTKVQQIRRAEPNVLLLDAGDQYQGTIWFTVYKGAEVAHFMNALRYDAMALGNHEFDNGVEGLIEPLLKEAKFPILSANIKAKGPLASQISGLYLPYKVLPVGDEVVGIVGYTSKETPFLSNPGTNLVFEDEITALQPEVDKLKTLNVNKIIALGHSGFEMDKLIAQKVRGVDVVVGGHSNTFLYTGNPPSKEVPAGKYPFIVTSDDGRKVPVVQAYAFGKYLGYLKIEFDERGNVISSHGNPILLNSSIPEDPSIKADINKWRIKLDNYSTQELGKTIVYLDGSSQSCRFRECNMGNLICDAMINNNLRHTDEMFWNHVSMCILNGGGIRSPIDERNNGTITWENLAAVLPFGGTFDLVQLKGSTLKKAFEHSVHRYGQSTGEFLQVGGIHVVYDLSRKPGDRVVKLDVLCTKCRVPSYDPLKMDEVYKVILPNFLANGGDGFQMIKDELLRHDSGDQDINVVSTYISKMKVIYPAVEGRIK

IC50	Structure (SMILES)
476 nM	C#C[C@@]1(O)[C@@H](COC(Cc2ccccc2)(C(=O)O)C(=O)O)O[C@@H](n2cnc3c(-c4cnn(S(=O)(=O)c5ccc(C)cc5)c4)nc(Cl)nc32)[C@@H]1O [Example 159, 2-benzyl-2-(((2R,3S,4R,5R)-5-(2-chloro-6-(1-tosyl-1H-pyrazol-4-yl)-9H-purin-9-yl)-3-ethynyl-3,4-dihydroxytetrahydrofuran-2-yl)methoxy)malonic acid]
1 nM	C#C[C@@]1(O)[C@@H](COC(Cc2ccccc2)(C(=O)O)C(=O)O)O[C@@H](n2cnc3c(NC4CC4)nc(Cl)nc32)[C@@H]1O [Example 83, 2-benzyl-2-(((2R,3S,4R,5R)-5-(2-chloro-6-(cyclopropylamino)-9H-purin-9-yl)-3-ethynyl-3,4-dihydroxytetrahydrofuran-2-yl)methoxy)malonic acid]
6 nM	C#C[C@@]1(O)[C@@H](COC(Cc2ccccc2)(C(=O)O)C(=O)O)O[C@@H](n2cnc3c(N(CCO)CCO)nc(Cl)nc32)[C@@H]1O [Example 37, 2-benzyl-2-(((2R,3S,4R,5R)-5-(6-(bis(2-hydroxyethyl)amino)-2-chloro-9H-purin-9-yl)-3-ethynyl-3,4-dihydroxytetrahydrofuran-2-yl)methoxy)malonic acid]
5 nM	C#C[C@@]1(O)[C@@H](COC(Cc2ccccc2)(C(=O)O)C(=O)O)O[C@@H](n2cnc3c(NC(C)C)cc(Cl)nc32)[C@@H]1O [Example 30, 2-benzyl-2-(((2R,3S,4R,5R)-5-(5-chloro-7-(isopropylamino)-3H-imidazo[4,5-b]pyridin-3-yl)-3-ethynyl-3,4-dihydroxytetrahydrofuran-2-yl)methoxy)malonic acid]
62 nM	C#C[C@@]1(O)[C@@H](COC(Cc2ccccc2)(C(=O)O)C(=O)O)O[C@@H](n2cnc3c(NCC4(O)CC4)nc(Cl)nc32)[C@@H]1O [Example 44, 2-benzyl-2-(((2R,3S,4R,5R)-5-(2-chloro-6-(((1-hydroxycyclopropyl)-methyl)amino)-9H-purin-9-yl)-3-ethynyl-3,4-dihydroxytetrahydrofuran-2-yl)methoxy)malonic acid]

These molecules were tested against T1, recombinant CD73 (assay: Assay 1: Inhibition of the CD73 enzyme in vitro (0.5 nM CD73, 30 min room temperature, Malachite Green)). Details: 0.5 nM CD73, 30 minutes at room temperature.
Assay type: biochemical
Experimental: For measurements of soluble CD73 enzyme activity, recombinant CD73 was obtained from R&D Systems, Cat. No. 5795-EN-010. […] Reactions were allowed to proceed for 30 minutes at room temperature before the addition of 100 μL Malachite Green (Cell Signaling Technology, Cat. No. 12776). After 5 minutes at room temperature, absorbance at 630 nm was determined on a microplate spectrophotometer. The concentration of inorganic phosphate was determined using a phosphate standard curve.

Structure (SMILES)	IC50
C#C[C@@]1(O)[C@@H](COC(C(N)=O)C(=O)O)O[C@@H](n2cnc3c(NC4CCCC4)nc(Cl)nc32)[C@@H]1O (stereo partly drawn) [Example 115, 3-amino-2-(((2R,3S,4R,5R)-5-(2-chloro-6-(cyclopentylamino)-9H-purin-9-yl)-3-ethynyl-3,4-dihydroxytetrahydrofuran-2-yl)methoxy)-3-oxopropanoic acid]	135 nM
C#C[C@@]1(O)[C@@H](COC(C(=O)OC)P(=O)(O)O)O[C@@H](n2cnc3c(N)nc(Cl)nc32)[C@@H]1O (stereo partly drawn) [Example 123, (1-(((2R,3S,4R,5R)-5-(6-amino-2-chloro-9H-purin-9-yl)-3-ethynyl-3,4-dihydroxytetrahydrofuran-2-yl)methoxy)-2-methoxy-2-oxoethyl)phosphonic acid]	71 nM
C#C[C@@]1(O)[C@@H](COC(Cc2cccc(C(=O)O)c2)(C(=O)O)c2cscn2)O[C@@H](n2cnc3c(N)nc(Cl)nc32)[C@@H]1O (stereo partly drawn) [Example 182, 3-(2-(((2R,3S,4R,5R)-5-(6-amino-2-chloro-9H-purin-9-yl)-3-ethynyl-3,4-dihydroxytetrahydrofuran-2-yl)methoxy)-2-carboxy-2-(thiazol-4-yl)ethyl)benzoic acid]	24 nM
C#C[C@@]1(O)[C@@H](COC(Cc2cccc(OC(F)(F)F)c2)(C(=O)O)c2cscn2)O[C@@H](n2cnc3c(N)nc(Cl)nc32)[C@@H]1O (stereo partly drawn) [Example 183, 2-(((2R,3S,4R,5R)-5-(6-amino-2-chloro-9H-purin-9-yl)-3-ethynyl-3,4-dihydroxytetrahydrofuran-2-yl)methoxy)-2-(thiazol-4-yl)-3-(3-(trifluoromethoxy)phenyl)propanoic acid]	56 nM
C#C[C@@]1(O)[C@@H](COC(C(=O)O)S(=O)(=O)c2ccccc2)O[C@@H](n2cnc3c(NC4CCCC4)nc(Cl)nc32)[C@@H]1O (stereo partly drawn) [Example 129, 2-(((2R,3S,4R,5R)-5-(2-chloro-6-(cyclopentylamino)-9H-purin-9-yl)-3-ethynyl-3,4-dihydroxytetrahydrofuran-2-yl)methoxy)-2-(phenylsulfonyl)acetic acid]	1580 nM
C#C[C@@]1(O)[C@@H](CO[C@](Cc2ccccc2)(C(=O)O)c2cscn2)O[C@@H](n2cnc3c(N)nc(Cl)nc32)[C@@H]1O (single isomer, unassigned) [Example 180]	9 nM
C#C[C@@]1(O)[C@@H](COC(C(=O)O)C(=O)N2CCCC2)O[C@@H](n2cnc3c(NC4CCCC4)nc(Cl)nc32)[C@@H]1O (stereo partly drawn) [Example 114, 2-(((2R,3S,4R,5R)-5-(2-chloro-6-(cyclopentylamino)-9H-purin-9-yl)-3-ethynyl-3,4-dihydroxytetrahydrofuran-2-yl)methoxy)-3-oxo-3-(pyrrolidin-1-yl)propanoic acid]	177 nM

The next lines start with the values.

IC50	Structure (SMILES)
3 nM	C#C[C@@]1(O)[C@@H](COC(Cc2cccc(C(F)(F)F)c2)(C(=O)O)C(=O)O)O[C@@H](n2cnc3c(N)nc(Cl)nc32)[C@@H]1O [Example 50, 2-(((2R,3S,4R,5R)-5-(6-amino-2-chloro-9H-purin-9-yl)-3-ethynyl-3,4-dihydroxytetrahydrofuran-2-yl)methoxy)-2-(3-(trifluoromethyl)benzyl)malonic acid]
82 nM	C#C[C@@]1(O)[C@@H](COC(Cc2ccccc2)(C(=O)O)c2csc(C(=O)O)n2)O[C@@H](n2cnc3c(N)nc(Cl)nc32)[C@@H]1O (stereo partly drawn) [Example 196, 4-(1-(((2R,3S,4R,5R)-5-(6-amino-2-chloro-9H-purin-9-yl)-3-ethynyl-3,4-dihydroxytetrahydrofuran-2-yl)methoxy)-1-carboxy-2-phenylethyl)thiazole-2-carboxylic acid]
134 nM	C#C[C@@]1(O)[C@@H](CO[C@@](Cc2ccccc2)(C(=O)O)c2cscn2)O[C@@H](n2cnc3c(NC)nc(Cl)nc32)[C@@H]1O [Example 188, (R)-2-(((2R,3S,4R,5R)-5-(2-chloro-6-(methylamino)-9H-purin-9-yl)-3-ethynyl-3,4-dihydroxytetrahydrofuran-2-yl)methoxy)-3-phenyl-2-(thiazol-4-yl)propanoic acid]
100 nM	C#C[C@@]1(O)[C@@H](COCP(=O)(O)O)O[C@@H](n2cnc3c(NCc4ccccc4)nc(Cl)nc32)[C@@H]1O [Example 204, ((((2R,3S,4R,5R)-5-(6-(benzylamino)-2-chloro-9H-purin-9-yl)-3-ethynyl-3,4-dihydroxytetrahydrofuran-2-yl)methoxy)methyl)phosphonic acid]
4.2 nM	C#C[C@@]1(O)[C@@H](COP(=O)(O)CP(=O)(O)O)O[C@@H](n2cnc3c(NCc4ccccc4)nc(Cl)nc32)[C@@H]1O [Example 203, (((((2R,3S,4R,5R)-5-(6-(benzylamino)-2-chloro-9H-purin-9-yl)-3-ethynyl-3,4-dihydroxytetrahydrofuran-2-yl)methoxy)(hydroxy)phosphoryl)methyl)phosphonic acid]
1.7 nM	C#C[C@@]1(O)[C@@H](COC(Cc2ccccc2)(C(=O)O)C(=O)O)O[C@@H](n2cnc3c(NC(C)C)nc(Cl)nc32)[C@@H]1O [Example 93, 2-benzyl-2-(((2R,3S,4R,5R)-5-(2-chloro-6-(isopropylamino)-9H-purin-9-yl)-3-ethynyl-3,4-dihydroxytetrahydrofuran-2-yl)methoxy)malonic acid]
